Results reported in patent US20230000842A1, “METHODS OF TREATING CARTILAGE DISORDERS THROUGH INHIBITION OF CLK AND DYRK” (SAMUMED, LLC, priority 2019, published 2023).

What was measured:
[1] = system: primary human mesenchymal stem cells (hMSCs); experiment: Chondrogenesis screening using primary human mesenchymal stem cells; format: cell-based; conditions: Homo sapiens, Mesenchymal stem cells, hMSC chondrogenesis; for Emax: maximum activity relative to TGF-β3 (10 ng/mL) positive control, read-out: Max. Activity as % TGF-β3 activity; for EC50: concentration required to induce 50% levels of chondrogenesis with TGF-β3 as positive control, read-out: Conc (nM) of 50% TGF-β3 activity
Outline: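 Primary hMSCs at passage 3–6 were treated across compound concentrations, with TGF-β3 as positive control. Chondrogenic nodule area per well was normalized to 3 DMSO wells on the same plate (fold over DMSO, 2–3 replicates). EC50, maximum activity and the dose reaching it were derived.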

CLK2 kinase = CLK2 kinase (Homo sapiens, UniProt P49760); experiment: CLK2 kinase activity assay (Z-lyte FRET); format: biochemical; conditions: Z-lyte Ser/Thr 6 peptide, 60 μM ATP, 1 h at room temperature;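 also: FRET read-out as coumarin to fluorescein emission ratio, unphosphorylated peptide as 0% and phosphorylated peptide as 100% controls, duplicate reactions, non-linear regression fit of dose-response curves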
CLK3 kinase = CLK3 kinase (Homo sapiens, UniProt P49761); experiment: CLK3 kinase activity assay (Z-lyte FRET); format: biochemical; conditions: Z-lyte Ser/Thr 18 peptide, 156 μM ATP, 1 h at room temperature;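 also: kinase activity read as coumarin/fluorescein emission ratio by FRET, unphosphorylated peptide as 0% and phosphorylated peptide as 100% control, values from non-linear regression of dose-response curves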
[2] = system: Wnt pathway activity (SW480 colon carcinoma cells stably expressing the Sp5-Luc reporter); experiment: Wnt pathway activity screening assay (Sp5-Luc reporter gene assay); conditions: Homo sapiens, SW480, Table 4; SW480 cells stably expressing Sp5-Luc reporter, 10-point dose-response from 10 μM, 36 to 48 hours

Sequence of CLK2 kinase (P49760 whole entry): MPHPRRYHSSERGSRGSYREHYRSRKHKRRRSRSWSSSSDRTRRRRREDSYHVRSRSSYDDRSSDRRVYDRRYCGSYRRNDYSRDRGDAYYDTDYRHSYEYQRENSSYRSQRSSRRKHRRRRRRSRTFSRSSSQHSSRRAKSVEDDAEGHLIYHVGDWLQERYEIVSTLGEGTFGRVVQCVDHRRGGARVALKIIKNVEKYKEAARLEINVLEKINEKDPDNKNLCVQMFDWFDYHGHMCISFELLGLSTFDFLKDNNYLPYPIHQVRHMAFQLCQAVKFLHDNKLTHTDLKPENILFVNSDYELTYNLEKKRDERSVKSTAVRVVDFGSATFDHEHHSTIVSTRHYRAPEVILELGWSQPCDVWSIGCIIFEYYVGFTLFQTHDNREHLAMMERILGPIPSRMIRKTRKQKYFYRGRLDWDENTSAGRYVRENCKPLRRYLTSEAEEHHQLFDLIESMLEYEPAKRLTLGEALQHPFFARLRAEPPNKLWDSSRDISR
Sequence of CLK3 kinase (P49761 whole entry): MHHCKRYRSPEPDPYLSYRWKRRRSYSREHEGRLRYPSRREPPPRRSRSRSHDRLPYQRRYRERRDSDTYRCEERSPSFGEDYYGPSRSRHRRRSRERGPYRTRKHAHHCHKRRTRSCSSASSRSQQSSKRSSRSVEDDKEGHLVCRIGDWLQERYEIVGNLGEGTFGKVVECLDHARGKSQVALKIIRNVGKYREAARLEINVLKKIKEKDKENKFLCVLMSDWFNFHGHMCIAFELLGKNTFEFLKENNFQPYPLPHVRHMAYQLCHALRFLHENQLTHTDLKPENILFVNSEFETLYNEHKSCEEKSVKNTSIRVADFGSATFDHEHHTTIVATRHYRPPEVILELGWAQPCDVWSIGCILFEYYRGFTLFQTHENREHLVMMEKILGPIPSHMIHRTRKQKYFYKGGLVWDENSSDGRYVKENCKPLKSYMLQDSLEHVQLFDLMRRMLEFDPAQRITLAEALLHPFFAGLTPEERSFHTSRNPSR

CC(C)Nc1cncc(-c2ccc3[nH]nc(-c4nc5c(-c6ccccc6F)cncc5[nH]4)c3c2)c1 [compound 177]
Emax [1]: 56.8% | EC50 (CLK2 kinase): 6 nM | EC50 (CLK3 kinase): 209 nM | EC50 [2]: 1 nM

c1cncc(-c2ccc3[nH]nc(-c4nc5c(-c6cccnc6)cncc5[nH]4)c3c2)c1 [compound 178]
EC50 [1]: 30 nM | Emax [1]: 159% | EC50 (CLK2 kinase): 5 nM | EC50 (CLK3 kinase): 207 nM | EC50 [2]: 35 nM

c1cncc(-c2cc3c(-c4nc5c(-c6cccnc6)cccc5[nH]4)n[nH]c3cn2)c1 [compound 179]
EC50 [1]: 100 nM | Emax [1]: 93% | EC50 (CLK2 kinase): 11 nM | EC50 (CLK3 kinase): 969 nM | EC50 [2]: 92.4 nM

c1cncc(-c2ccc3[nH]nc(-c4nc5c(-c6cccnc6)cccc5[nH]4)c3n2)c1 [compound 180]
EC50 [1]: 30 nM | Emax [1]: 57.8% | EC50 (CLK2 kinase): 2 nM | EC50 (CLK3 kinase): 296 nM | EC50 [2]: 1120 nM

c1cncc(-c2cnc3[nH]nc(-c4nc5c(-c6cccnc6)cncc5[nH]4)c3c2)c1 [compound 181]
Emax [1]: 62.9% | EC50 (CLK2 kinase): 15 nM | EC50 (CLK3 kinase): 17 nM | EC50 [2]: > 10000 nM

c1cncc(-c2cc3c(-c4nc5c(-c6cccnc6)nccc5[nH]4)n[nH]c3cn2)c1 [compound 182]
Emax [1]: 44.5% | EC50 (CLK2 kinase): 11 nM | EC50 (CLK3 kinase): 9840 nM | EC50 [2]: 28.3 nM

c1cncc(-c2ccc3[nH]nc(-c4nc5c(-c6cccnc6)nccc5[nH]4)c3n2)c1 [compound 183]
EC50 [1]: 100 nM | Emax [1]: 70% | EC50 (CLK2 kinase): 1 nM | EC50 (CLK3 kinase): 105 nM | EC50 [2]: > 10000 nM

c1cncc(-c2ccc3[nH]nc(-c4nc5c(-c6cccnc6)cncc5[nH]4)c3n2)c1 [compound 184]
EC50 [1]: 30 nM | Emax [1]: 83.8% | EC50 (CLK2 kinase): 1 nM | EC50 (CLK3 kinase): 177 nM | EC50 [2]: > 10000 nM

c1cncc(-c2ccc3[nH]nc(-c4nc5c(-c6cccnc6)ccnc5[nH]4)c3n2)c1 [compound 185]
EC50 [1]: 300 nM | Emax [1]: 94.6% | EC50 (CLK2 kinase): 1 nM | EC50 (CLK3 kinase): 308 nM | EC50 [2]: 1510 nM

CC(C)C(=O)Nc1cncc(-c2ccc3[nH]nc(-c4nc5c(-c6cccnc6)cncc5[nH]4)c3c2)c1 [compound 186]
Emax [1]: 34.4% | EC50 (CLK2 kinase): 4 nM | EC50 (CLK3 kinase): 37 nM | EC50 [2]: 5.1 nM

CC(C)C(=O)Nc1cncc(-c2ccc3[nH]nc(-c4nc5c(-c6cccnc6)ccnc5[nH]4)c3n2)c1 [compound 187]
Emax [1]: 26.1% | EC50 (CLK2 kinase): 2 nM | EC50 (CLK3 kinase): 132 nM | EC50 [2]: > 10000 nM

O=C(Nc1cncc(-c2cnc3[nH]nc(-c4nc5c(-c6cccnc6)cncc5[nH]4)c3c2)c1)C1CC1 [compound 190]
Emax [1]: 86.3% | EC50 (CLK2 kinase): 5 nM | EC50 (CLK3 kinase): 39 nM | EC50 [2]: 23.3 nM

O=C(Nc1cncc(-c2cnc3[nH]nc(-c4nc5c(-c6cccnc6)cncc5[nH]4)c3c2)c1)C1CCC1 [compound 191]
EC50 [1]: 300 nM | Emax [1]: 130% | EC50 (CLK2 kinase): 3 nM | EC50 (CLK3 kinase): 49 nM | EC50 [2]: 35.4 nM

CC(C)Nc1cncc(-c2ccc3[nH]nc(-c4nc5c(-c6cccnc6)nccc5[nH]4)c3n2)c1 [compound 193]
EC50 [1]: 10 nM | Emax [1]: 54.4% | EC50 (CLK2 kinase): 2 nM | EC50 (CLK3 kinase): 322 nM | EC50 [2]: 981 nM

CC(C)Nc1cncc(-c2ccc3[nH]nc(-c4nc5c(-c6cccnc6)cncc5[nH]4)c3n2)c1 [compound 194]
EC50 [1]: 30 nM | Emax [1]: 64.6% | EC50 (CLK2 kinase): 2 nM | EC50 (CLK3 kinase): 213 nM | EC50 [2]: 1270 nM

CC(C)Nc1cncc(-c2ccc3[nH]nc(-c4nc5c(-c6cccnc6)ccnc5[nH]4)c3n2)c1 [compound 195]
EC50 [1]: 10 nM | Emax [1]: 114% | EC50 (CLK2 kinase): 1 nM | EC50 (CLK3 kinase): 280 nM | EC50 [2]: 1750 nM

CCCC(=O)Nc1cncc(-c2ccc3[nH]nc(-c4nc5c(-c6ccncc6)cncc5[nH]4)c3n2)c1 [compound 196]
Emax [1]: 31% | EC50 (CLK2 kinase): 5 nM | EC50 (CLK3 kinase): 995 nM | EC50 [2]: 999 nM

O=C(Nc1cncc(-c2ccc3[nH]nc(-c4nc5c(-c6ccncc6)ccnc5[nH]4)c3n2)c1)C1CCCCC1 [compound 198]
EC50 [1]: 10 nM | Emax [1]: 68.6% | EC50 (CLK2 kinase): 11 nM | EC50 (CLK3 kinase): 984 nM | EC50 [2]: 999 nM

c1cncc(-c2cc3c(-c4nc5ccccc5[nH]4)n[nH]c3cn2)c1 [compound 200]
EC50 [1]: 30 nM | Emax [1]: 80.5% | EC50 (CLK2 kinase): 22 nM | EC50 (CLK3 kinase): 209 nM | EC50 [2]: 20.1 nM

c1cncc(-c2ccc3[nH]nc(-c4nc5cnccc5[nH]4)c3n2)c1 [compound 201]
EC50 [1]: 30 nM | Emax [1]: 54.8% | EC50 (CLK2 kinase): 15 nM | EC50 (CLK3 kinase): 2270 nM | EC50 [2]: > 10000 nM

CC(C)(C)CC(=O)Nc1cncc(-c2ccc3[nH]nc(-c4nc5ccncc5[nH]4)c3c2)c1 [compound 202]
EC50 [1]: 100 nM | Emax [1]: 152% | EC50 (CLK2 kinase): 2 nM | EC50 (CLK3 kinase): 65 nM | EC50 [2]: 21 nM

CC(C)(C)CC(=O)Nc1cncc(-c2ccc3[nH]nc(-c4nc5ccncc5[nH]4)c3n2)c1 [compound 203]
EC50 [1]: 10 nM | Emax [1]: 54.1% | EC50 (CLK2 kinase): 11 nM | EC50 (CLK3 kinase): 558 nM | EC50 [2]: > 10000 nM

O=C(Nc1cncc(-c2ccc3[nH]nc(-c4nc5ccncc5[nH]4)c3c2)c1)C1CC1 [compound 204]
Emax [1]: 93.8% | EC50 (CLK2 kinase): 27 nM | EC50 (CLK3 kinase): 206 nM | EC50 [2]: 8 nM

CCC(=O)Nc1cncc(-c2ccc3[nH]nc(-c4nc5c(N6CCCCC6)cncc5[nH]4)c3n2)c1 [compound 206]
EC50 [1]: 900 nM | Emax [1]: 69.8% | EC50 (CLK2 kinase): 12 nM | EC50 (CLK3 kinase): 213 nM | EC50 [2]: > 10000 nM

CCC(=O)Nc1cncc(-c2ccc3[nH]nc(-c4nc5c(N6CCCCC6)ccnc5[nH]4)c3n2)c1 [compound 207]
Emax [1]: 38.3% | EC50 (CLK2 kinase): 3 nM | EC50 (CLK3 kinase): 1290 nM | EC50 [2]: > 10000 nM

CC(C)(C)C(=O)Nc1cncc(-c2ccc3[nH]nc(-c4nc5c(N6CCCCC6)cncc5[nH]4)c3c2)c1 [compound 209]
EC50 [1]: 100 nM | Emax [1]: 114% | EC50 (CLK2 kinase): 11 nM | EC50 (CLK3 kinase): 94 nM | EC50 [2]: 41 nM

O=C(Nc1cncc(-c2ccc3[nH]nc(-c4nc5c(N6CCCCC6)cncc5[nH]4)c3c2)c1)C1CCC1 [compound 210]
EC50 [1]: 30 nM | Emax [1]: 106% | EC50 (CLK2 kinase): 7 nM | EC50 (CLK3 kinase): 54 nM | EC50 [2]: 39 nM

FC1(F)CCN(Cc2cncc(-c3ccc4[nH]nc(-c5nc6c(N7CCCCC7)cncc6[nH]5)c4c3)c2)C1 [compound 211]
Emax [1]: 80.1% | EC50 (CLK2 kinase): 8 nM | EC50 (CLK3 kinase): 107 nM | EC50 [2]: 20 nM

FC1(F)CCN(Cc2cncc(-c3cc4c(-c5nc6c(N7CCCCC7)cncc6[nH]5)n[nH]c4cn3)c2)C1 [compound 212]
EC50 [1]: 10 nM | Emax [1]: 100% | EC50 (CLK2 kinase): 5 nM | EC50 (CLK3 kinase): 89 nM | EC50 [2]: 116 nM

CN1CCN(c2cncc3[nH]c(-c4n[nH]c5ccc(-c6cccnc6)cc45)nc23)CC1 [compound 213]
Emax [1]: 80.6% | EC50 (CLK2 kinase): 1 nM | EC50 (CLK3 kinase): 51 nM | EC50 [2]: 53 nM

CN1CCN(c2nccc3[nH]c(-c4n[nH]c5ccc(-c6cncc(N)c6)nc45)nc23)CC1 [compound 214]
EC50 [1]: 100 nM | Emax [1]: 135% | EC50 (CLK2 kinase): 2 nM | EC50 (CLK3 kinase): 344 nM | EC50 [2]: > 10000 nM

CN1CCN(c2cncc3[nH]c(-c4n[nH]c5ccc(-c6cncc(N)c6)nc45)nc23)CC1 [compound 215]
EC50 [1]: 30 nM | Emax [1]: 64.6% | EC50 (CLK2 kinase): 5 nM | EC50 (CLK3 kinase): 500 nM | EC50 [2]: > 10000 nM

CN1CCN(c2ccnc3[nH]c(-c4n[nH]c5ccc(-c6cncc(N)c6)nc45)nc23)CC1 [compound 216]
Emax [1]: 46.9% | EC50 (CLK2 kinase): 2 nM | EC50 (CLK3 kinase): 843 nM | EC50 [2]: > 10000 nM

CN1CCN(c2cncc3[nH]c(-c4n[nH]c5ccc(-c6cncc(N7CCOCC7)c6)cc45)nc23)CC1 [compound 218]
Emax [1]: 63.8% | EC50 (CLK2 kinase): 1 nM | EC50 (CLK3 kinase): 32 nM | EC50 [2]: 83 nM

Cc1cn(-c2nccc3[nH]c(-c4n[nH]c5ccc(-c6cncc(NC(=O)C(C)(C)C)c6)nc45)nc23)cn1 [compound 221]
EC50 [1]: 30 nM | Emax [1]: 69.7% | EC50 (CLK2 kinase): 3 nM | EC50 (CLK3 kinase): 188 nM | EC50 [2]: > 10000 nM

Cc1cn(-c2ccnc3[nH]c(-c4n[nH]c5ccc(-c6cncc(NC(=O)C(C)(C)C)c6)nc45)nc23)cn1 [compound 223]
EC50 [1]: 10 nM | Emax [1]: 70.2% | EC50 (CLK2 kinase): 3 nM | EC50 (CLK3 kinase): 123 nM | EC50 [2]: > 10000 nM

Cc1cn(-c2nccc3[nH]c(-c4n[nH]c5ccc(-c6cncc(NC(=O)CC(C)C)c6)cc45)nc23)cn1 [compound 224]
EC50 [1]: 30 nM | Emax [1]: 73.7% | EC50 (CLK2 kinase): 12 nM | EC50 (CLK3 kinase): 56 nM | EC50 [2]: 10.4 nM

Cc1cn(-c2nccc3[nH]c(-c4n[nH]c5ccc(-c6cncc(NC(=O)CC(C)C)c6)nc45)nc23)cn1 [compound 226]
EC50 [1]: 30 nM | Emax [1]: 69.3% | EC50 (CLK2 kinase): 4 nM | EC50 (CLK3 kinase): 116 nM | EC50 [2]: 2900 nM

Cc1cn(-c2cncc3[nH]c(-c4n[nH]c5ccc(-c6cncc(NC(=O)C7CCC7)c6)nc45)nc23)cn1 [compound 227]
Emax [1]: 47.2% | EC50 (CLK2 kinase): 10 nM | EC50 (CLK3 kinase): 1300 nM | EC50 [2]: > 10000 nM

Cc1cn(-c2ccnc3[nH]c(-c4n[nH]c5ccc(-c6cncc(NC(=O)C7CCC7)c6)nc45)nc23)cn1 [compound 228]
EC50 [1]: 300 nM | Emax [1]: 69.1% | EC50 (CLK2 kinase): 4 nM | EC50 (CLK3 kinase): 106 nM | EC50 [2]: > 10000 nM
